{"source": "patent US20040028687A1", "about": "“Methods and compositions for the targeted delivery of therapeutic substances to specific cells and tissues” (priority 2002, published 2004)", "key": {"rNeu^+ tumor cells": {"test_system": "rNeu^+ tumor cells", "assay_type": "in vivo, mice", "method": "FIG. 6: Effect of virosome treatment on recently implanted tumors. 2×10^5 rNeu^+ tumor cells were injected s.c. and treatment was started 3-5 days later. I.v. injections of the different virosome formulations such as Doxo-Vir, Fab′-Doxo-Vir, Fab′-Vir and free Doxo (all at a concentration of 150 μg/ml doxorubicin) were performed at the indicated time points (arrows) for a period of three weeks. Tumor size was assessed twice a week during therapy and weekly in the follow-up period. Tumor formation (defined as volume >90 mm^3) in the different groups and the follow-up of >12 weeks is shown. Statistical analysis using Mann-Whitney rank test was performed. Control groups (◯), free Doxo (▾), Doxo-Vir (♦), Fab′-Vir (●), Fab′-Doxo-Vir (▪)\nIn another preferred embodiment of the invention, conjugated virosomes are used to arrest the metastatic spread of tumors. […] The effect of Fab′ conjugated virosomes on the growth of tumor metastases is assessed as follows. […] Tumor formation is assessed by palpation followed by measurement of tumor size as described in the previous example. […]\nFor the micrometastatic stage of tumor formation, 0.2×10^6 tumor cells are injected s.c. and treatment is started 3-5 days later. […] Tumor formation is assessed by palpation followed by measurement of tumor size as described in the previous example. […]"}, "rNeu^+ (NF 9006) tumors": {"test_system": "rNeu^+ (NF 9006) tumors", "assay_type": "in vivo, mice", "conditions": "established rNeu+ tumors, i.v. every 3-4 days; comparison between treatments"}, "[1]": {"conditions": "cited from earlier work"}}, "note": "Like-named read-outs stand apart in the source and are kept apart here."}
{"smiles": "COc1cccc2c1C(=O)c1c(O)c3c(c(O)c1C2=O)C[C@@](O)(C(=O)CO)C[C@@H]3O[C@H]1C[C@H](N)[C@H](O)[C@H](C)O1", "note": "[free Doxo, doxorubicin]", "values": [{"measurement": "median time to tumor formation", "setting": "rNeu^+ tumor cells; 2×10^5 rNeu+ cells s.c., treatment from day 3-5, 9 injections over 3 weeks, tumor formation >90 mm^3", "value": 20, "unit": "days"}, {"measurement": "tumor development", "setting": "rNeu^+ tumor cells; within 4 weeks after tumor cell inoculation, all mice of the group", "value": "developed tumors"}, {"measurement": "tumor progression compared with another treatment group", "setting": "rNeu^+ (NF 9006) tumors", "value": "no significant difference in tumor progression"}, {"measurement": "tolerated dose", "setting": "[1]; SCID mice", "value": "2 to 3", "unit": "mg/kg"}, {"measurement": "tolerated dose", "setting": "[1]; normal mice", "value": 6, "unit": "mg/kg"}]}
